Source: ChEMBL document CHEMBL1137154, “Phenylethanolamine N-methyltransferase inhibition: re-evaluation of kinetic data” (Bioorg Med Chem Lett, 2004)

Molecular target: T1, Phenylethanolamine N-methyltransferase (Homo sapiens, UniProt P11086)
T1 sequence (P11086 whole entry): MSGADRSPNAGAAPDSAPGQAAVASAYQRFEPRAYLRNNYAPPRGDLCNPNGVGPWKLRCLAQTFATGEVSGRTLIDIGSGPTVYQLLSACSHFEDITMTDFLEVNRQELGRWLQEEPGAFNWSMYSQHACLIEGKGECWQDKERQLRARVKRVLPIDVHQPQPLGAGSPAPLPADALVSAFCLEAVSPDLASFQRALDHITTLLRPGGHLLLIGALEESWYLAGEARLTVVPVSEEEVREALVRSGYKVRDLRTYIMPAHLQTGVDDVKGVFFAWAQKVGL
Assay: Inhibitory binding affinity for phenylethanolamine N-methyl-transferase (PNMT)

CC(N)c1cccc(Cl)c1Cl (stereo unspecified)
Ki: 90 nM
